Experiments:
TSP-1 [1] = assay: TSP-1 mRNA (RT-PCR) and protein (Western blot) levels in human breast cancer cells; format: cell-based; details: 40 μM α-TEA; for peak TSP-1 mRNA levels, fold of VEH control: 6 h
Procedure: Whole-cell protein extracts were prepared as described previously (Yu et al., 1999), and 50 μg of protein was loaded per lane, separated using SDS-PAGE on a 10-15% gel under reducing conditions, and electroblotted onto a nitrocellulose membrane ([…] Optitran BA-S-supported nitrocellulose; Schleicher and Schuell, Keene, N.H.). Equal loading was verified using GAPDH antibody. Primary rabbit antibodies with specificity for PARP and primary goat antibody with specificity for Arg were purchased from Santa Cruz Biotechnology (Santa Cruz, Calif.). Horseradish peroxidase conjugated goat anti-rabbit or horseradish goat anti-mouse secondary antibody was purchased from Jackson Immunoresearch Laboratory (West Grove, Pa.). Horseradish peroxidase-conjugated donkey anti-goat serum was purchased from Santa Cruz Biotechnology. Immune complexes were visualized using enhanced chemiluminescence detection (Pierce Chemical Co., Rockford, Ill.). Fold differences in level of chemiluminescence were determined by densitometric analyses.
Total RNA was isolated from cells using RNeasy Protect Mini kit (Qiagen, Valencia, Calif.) according to manufacturer's instruction. Reverse transcription was performed as described above except using 15 μg of total RNA as template. Polymerase chain reaction (PCR) with Arg primers 30 cycles in volumes of 50 μl according to the manufacturer's protocol (Taq PCR Master Mix Kit; Qiagen, Valencia, Calif.). Primers used in the analyses were: Arg, forward (5′-CAGTGATGCCTCCACCTCAA-3′; SEQ ID NO:2) and reverse (5′-TTTCCCTCTCCCCTCAGAAAT-3′; SEQ ID NO:3) and for β-actin (loading control), forward (5′-GGCGGCACCACCATGTACCCT-3′; SEQ ID NO:4) and reverse (5′-AGGGGCCGGACTCGTCATACT-3′; SEQ ID NO:5) (Invitrogen, Carlsbad, Calif.). The amplification reaction involved denaturation at 95° C. for 30 seconds, annealing at 52° C. for 30 seconds, and extension at 72° C. for 30 seconds (for Arg) using a PTC-225 thermal cycler (MJ Research, San Francisco, Calif.). The PCR products were resolved on 1% agarose gels and visualized by ethidium bromide staining.
Western blot analyses with a primary mouse antibody (Calbiochem (San Diego, Calif.)) was used to determine protein levels in treated versus untreated MDA-MB-435 and MCF-7 human breast cancer cells (FIG. 2B). […] 66c1-4-GFP cells are a mouse mammary tumor cell line originally derived from a spontaneous mammary tumor in a Balb/cfC3H mouse and later isolated as a 6-thioguanine-resistant clone. The cells were subsequently stably transfected with the enhanced GFP (Lawson et al., 2003). […] In MCF-7 cells, peak TSP-1 mRNA levels at 6 h were 1.3-fold of the VEH control and peak TSP-1 protein levels at 24 h were 2.4-fold of the VEH control. […]

TSP-1 [2] = assay: TSP-1 mRNA and protein levels in 66c1-4-GFP mouse mammary tumor cells; format: cell-based; details: 66c1-4-GFP cells, 40 μM α-TEA
FOXO1 = FOXO1 phosphorylation and nuclear localization (Western blot, cell fractionation); format: cell-based, human; details: LNCaP and PC-3-GFP cells
From the text: The transcription factor FOXO1 is a downstream substrate of Akt in which phosphorylation by Akt prevents its pro-apoptotic actions (Woods et al., 2002). Since previous studies of α-TEA's mechanism of action in inducing apoptosis in cancer cells show a role for Fas signaling (Shun et al., 2004) and since FOXO1 has been proposed to be a transcriptional regulator of FasL (Ciechomska et al., 2003), it was of interest to investigate the effects of α-TEA on FOXO1 phosphorylation status and cellular location. […] FOXO1 is normally localized in the nucleus (Woods et al., 2002) and phosphorylation of FOXO1 by Akt at Ser 256 promotes the relocation of FOXO1 from the nucleus to the cytosol, thereby inhibiting its transcriptional activity (Greer et al., 2005). As expected, control LNCaP and PC-3-GFP cells had high levels of FOXO1 in the cytosol reflecting the constitutively activated state of Akt in these cells (FIG. 7B).
Plasmids encoding wild type FOXO1 (Flag-tagged FOXO1) and constitutively active FOXO1 (Flag-tagged FOXO1AAA) were generous gifts from Dr. Kun-Liang Guan (Tang et al., 1999). FOXO1 and phospho-FOXO1 antibodies were purchased from Cell Signaling Technology (Beverly, Mass.).
Preparation of cytoplasmic and nuclear extracts for the foregoing experiments was carried-out using methods that are well known in the art. […]

FlipL = FlipL protein level by immunoblot; format: cell-based, human; details: LNCaP and PC-3-GFP cells, 40 μM α-TEA, time-dependent
From the text: (§1) Antibodies to human Flip and survivin used in these experiments were purchased from Santa Cruz Biotechnology (Santa Cruz, Calif.).

survivin = assay: Survivin protein level by immunoblot; format: cell-based, human; details: LNCaP and PC-3-GFP cells, 40 μM α-TEA, time-dependent
From the text: as §1

[3] = test system: human MDA-MB-435 breast cancer cells; details: preclinical xenograft model transplanted with human MDA-MB-435 breast cancer cells (Zhang et al., 2004); cited from earlier work

Cc1c(C)c2c(c(C)c1OCC(=O)O)CC[C@@](C)(CCC[C@H](C)CCC[C@H](C)CCCC(C)C)O2 [α-TEA]
peak TSP-1 mRNA levels, fold of VEH control (TSP-1 [1]; MCF-7 cells): 1.3 fold
peak TSP-1 protein levels, fold of VEH control (TSP-1 [1]; MCF-7 cells, 24 h): 2.4 fold
peak TSP-1 mRNA levels, fold of VEH control (TSP-1 [1]; MDA-MB-435 cells): 1.8 fold
peak TSP-1 protein levels, fold of VEH control (TSP-1 [1]; MDA-MB-435 cells, 15 h): 4.7 fold
peak TSP-1 mRNA levels, fold of VEH control (TSP-1 [2]; 6 h): 2.4 fold
TSP-1 protein levels, fold of VEH control (TSP-1 [2]; 24 h): 7.8 fold
FOXO1 nuclear localization (FOXO1; 40 μM α-TEA for 24 h): increase in FOXO1 levels in the nucleus
phospho-FOXO1 levels (FOXO1; 40 μM α-TEA, 3-24 h, total protein unchanged): reduced in a time-dependent manner
protein levels of FlipL (FlipL): downregulated
protein levels of survivin (survivin): downregulated
blood vessel density [3]: significantly reduce blood vessel density

From patent US20100292316A1, “IMPROVED THERAPEUTIC METHODS AND COMPOSITIONS COMPRISING CHROMAN RING COMPOUNDS” (Research Development Foundation, priority 2007, published 2010)
